Laboratory results from US20100056524A1, “Compound” (priority 2008, published 2010).
Structures can show the parent of a compound that is named as a salt. Where two headings read alike, the source gives them in different places.

Key:
MKK1 = biological target: T1, MKK1 (Homo sapiens, UniProt Q02750); test: MKK1 protein kinase assay; type: biochemical; settings: for remaining activity at 10 µM: 10 μM compound; for residual kinase activity MKK1: 1 μm compound; for remaining activity at 1 µM: 1 μM compound
T1 construct: All protein kinases were of human origin and encoded full length proteins, unless indicated otherwise; made in house
Text: (§1) All protein kinases were of human origin and encoded full length proteins, unless indicated otherwise. They were either expressed as glutathione S-transferase (GST) fusion proteins in Escherichia Coli or as hexahistidine (His6)-tagged proteins in insect Sf21 cells. GST fusion proteins were purified by affinity chromatography on glutathione-Sepharose, and His6-tagged proteins on nickel/nitriloacetate-agarose. The procedures for expressing some of the protein kinases used herein have been detailed previously.^8,9 The following sections outline the DNA vectors synthesised and the procedures used to express and purifying protein kinases that have not been reported previously.
(§2) All assays (25.5 μl) were carried out at room temperature (21° C.) and were linear with respect to time and enzyme concentration under the conditions used. Assays were performed for 30 min using Multidrop Micro reagent dispensers (Thermo Electron Corporation, Waltham, Mass. 02454, USA) in a 96-well format. The concentration of magnesium acetate in the assays was 10 mM and the [γ-33P] ATP (800 cpm/pmol) was used at 5, 20 or 50 μM as indicated, in order to be at or below the Km for ATP for each enzyme. Protein kinases assayed at 5 μM ATP were: —ERK1, ERK8, PKBα, MARK3, Aurora C. Protein kinases assayed at 20 μM ATP were: —JNK1, PDK1, CHK1, CHK2, CDK2 and Aurora B. Protein kinases assayed at 50 μM ATP were: —MNK2, IKKepsilon and TBK1.
(§3) The assays were initiated with MgATP, stopped by addition of 5 μl of 0.5 M orthophosphoric acid and spotted on to P81 filterplates using a unifilter harvester (PerkinElmer, Boston, Mass. 02118, USA). The IC50 values of inhibitors were determined after carrying out assays at 10 different concentrations of each compound.
(§4) Unless stated otherwise, enzymes were diluted in 50 mM Tris/HCl pH 7.5, 0.1 mM EGTA, 1 mg/ml BSA, 0.1% (v/v) 2-mercaptoethanol and assayed in 50 mM Tris/HCl pH 7.5, 0.1 mM EGTA, 0.1% (v/v) 2-mercaptoethanol.

DYRK2 = biological target: T2, DYRK2 (Homo sapiens, UniProt Q92630); test: DYRK2 protein kinase assay; type: biochemical; settings: for remaining activity at 10 µM: 10 μM compound; for residual kinase activity DYRK2: 1 μm compound; for remaining activity at 1 µM: 1 μM compound
T2 construct: All protein kinases were of human origin and encoded full length proteins, unless indicated otherwise; made in house
T2 sequence (Q92630 1-601): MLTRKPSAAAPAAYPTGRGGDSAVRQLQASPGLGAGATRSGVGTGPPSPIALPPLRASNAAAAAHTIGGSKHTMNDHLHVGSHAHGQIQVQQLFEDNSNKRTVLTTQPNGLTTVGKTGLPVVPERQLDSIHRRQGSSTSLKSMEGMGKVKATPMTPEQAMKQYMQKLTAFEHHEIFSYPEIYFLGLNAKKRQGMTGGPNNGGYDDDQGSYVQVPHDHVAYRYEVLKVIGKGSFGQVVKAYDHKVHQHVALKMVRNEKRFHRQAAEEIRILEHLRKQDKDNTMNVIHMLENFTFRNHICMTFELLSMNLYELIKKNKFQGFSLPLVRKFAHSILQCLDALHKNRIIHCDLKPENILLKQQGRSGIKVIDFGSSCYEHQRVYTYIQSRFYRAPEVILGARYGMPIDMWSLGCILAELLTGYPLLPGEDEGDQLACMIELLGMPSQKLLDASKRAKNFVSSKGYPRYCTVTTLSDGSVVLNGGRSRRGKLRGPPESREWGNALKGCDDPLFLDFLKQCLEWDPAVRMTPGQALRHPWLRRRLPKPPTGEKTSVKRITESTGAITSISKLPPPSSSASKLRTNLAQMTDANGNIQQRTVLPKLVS
Text: as §1, §2, §3, §4

CK2 = CK2 protein kinase assay; type: biochemical, human; settings: for residual kinase activity: CK2
Text: as §1, §2, §3, §4

PKC zeta = biological target: T3, PKC zeta (Homo sapiens, UniProt Q05513); test: PKC zeta protein kinase assay; type: biochemical; settings: for remaining activity at 10 µM: 10 μM compound; for residual kinase activity PKC zeta: 1 μm compound; for remaining activity at 1 µM: 1 μM compound
T3 construct: All protein kinases were of human origin and encoded full length proteins, unless indicated otherwise; made in house
T3 sequence (Q05513 1-592): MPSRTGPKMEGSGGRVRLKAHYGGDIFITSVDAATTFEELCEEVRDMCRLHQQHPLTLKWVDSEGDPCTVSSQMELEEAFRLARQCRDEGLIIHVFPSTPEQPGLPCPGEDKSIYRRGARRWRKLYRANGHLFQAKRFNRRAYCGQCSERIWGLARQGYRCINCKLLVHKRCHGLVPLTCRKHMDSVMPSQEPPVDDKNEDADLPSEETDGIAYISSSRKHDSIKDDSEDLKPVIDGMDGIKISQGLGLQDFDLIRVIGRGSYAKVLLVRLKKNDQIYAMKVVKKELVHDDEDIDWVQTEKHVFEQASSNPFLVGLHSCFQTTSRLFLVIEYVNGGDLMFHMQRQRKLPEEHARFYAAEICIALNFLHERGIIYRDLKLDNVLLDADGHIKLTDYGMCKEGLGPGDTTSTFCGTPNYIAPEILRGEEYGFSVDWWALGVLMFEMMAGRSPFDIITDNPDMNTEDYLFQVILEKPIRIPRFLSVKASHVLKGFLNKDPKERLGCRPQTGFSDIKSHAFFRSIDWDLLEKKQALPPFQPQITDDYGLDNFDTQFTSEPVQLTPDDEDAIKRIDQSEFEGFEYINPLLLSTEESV
Text: as §1, §2, §3, §4

CHK2 = biological target: T4, CHK2 (Homo sapiens, UniProt O96017); test: CHK2 protein kinase assay; type: biochemical; settings: for remaining activity at 10 µM: 10 μM compound; for residual kinase activity CHK2: 1 μm compound; for remaining activity at 1 µM: 1 μM compound
T4 construct: The following proteins were expressed in E. coli: —CHK2[5-543]; GST; made in house; host or cells: E. coli
Text: as §1
The following proteins were expressed in E. coli: —CHK2[5-543], cyclin-dependent protein kinase 2 (CDK2), MAP kinase-interacting kinase 2 (MNK2), extra-cellular signal-regulated kinase 1 (ERK1).
as §2, §3, §4

[1] = read-out: residual kinase activity MKK1
[2] = read-out: residual kinase activity DYRK2
[3] = read-out: residual kinase activity PKC zeta
[4] = read-out: residual kinase activity CHK2
[5] = MKK1, read-out: residual kinase activity
[6] = DYRK2, read-out: residual kinase activity
[7] = PKC zeta, read-out: residual kinase activity
[8] = CHK2, 20 μM ATP, read-out: residual kinase activity

T4 sequence (O96017 5-543): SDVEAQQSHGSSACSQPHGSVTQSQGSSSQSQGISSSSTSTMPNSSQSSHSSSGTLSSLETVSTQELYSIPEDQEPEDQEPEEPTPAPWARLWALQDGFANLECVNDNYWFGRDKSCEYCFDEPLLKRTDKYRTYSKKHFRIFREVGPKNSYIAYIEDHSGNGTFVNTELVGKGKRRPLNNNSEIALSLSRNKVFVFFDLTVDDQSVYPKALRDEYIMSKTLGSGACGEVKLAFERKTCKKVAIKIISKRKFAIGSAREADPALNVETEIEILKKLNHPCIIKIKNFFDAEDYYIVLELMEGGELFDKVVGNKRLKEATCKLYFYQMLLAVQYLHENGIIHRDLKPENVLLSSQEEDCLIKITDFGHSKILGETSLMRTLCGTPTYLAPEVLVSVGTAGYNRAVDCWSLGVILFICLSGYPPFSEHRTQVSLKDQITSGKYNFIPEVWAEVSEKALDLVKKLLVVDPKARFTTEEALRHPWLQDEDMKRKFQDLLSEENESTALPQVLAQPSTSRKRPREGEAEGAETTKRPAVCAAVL
T1 sequence (Q02750 whole entry): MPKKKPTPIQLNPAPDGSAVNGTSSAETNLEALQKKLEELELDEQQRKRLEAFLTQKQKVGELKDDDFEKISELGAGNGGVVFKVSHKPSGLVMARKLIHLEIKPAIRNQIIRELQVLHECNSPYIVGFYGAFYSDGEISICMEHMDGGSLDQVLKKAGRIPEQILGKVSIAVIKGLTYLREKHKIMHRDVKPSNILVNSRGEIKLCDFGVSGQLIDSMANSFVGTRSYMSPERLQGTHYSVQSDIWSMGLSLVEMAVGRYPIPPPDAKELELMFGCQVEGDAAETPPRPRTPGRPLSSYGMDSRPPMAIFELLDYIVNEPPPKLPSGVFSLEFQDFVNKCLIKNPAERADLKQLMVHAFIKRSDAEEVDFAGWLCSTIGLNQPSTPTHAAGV

Compound | remaining activity at 10 µM (MKK1; [1]) | residual kinase activity MKK1 (MKK1) | remaining activity at 10 µM (DYRK2; [2]) | residual kinase activity DYRK2 (DYRK2) | residual kinase activity CK2 (CK2; 10 μM compound) | residual kinase activity CK2 (CK2; 1 μm compound) | remaining activity at 10 µM (PKC zeta; [3]) | residual kinase activity PKC zeta (PKC zeta) | remaining activity at 10 µM (CHK2; [4]) | residual kinase activity CHK2 (CHK2) | remaining activity at 1 µM (MKK1; [5]) | remaining activity at 10 µM (MKK1; [5]) | remaining activity at 1 µM (DYRK2; [6]) | remaining activity at 10 µM (DYRK2; [6]) | residual kinase activity (CK2; 1 μM compound) | residual kinase activity (CK2; 10 μM compound) | remaining activity at 1 µM (PKC zeta; [7]) | remaining activity at 10 µM (PKC zeta; [7]) | remaining activity at 1 µM (CHK2; [8]) | remaining activity at 10 µM (CHK2; [8])
O=C(NCCCNc1nc(Nc2cccc(F)c2)ncc1Br)C1CCC1 [Compound A, cyclobutanecarboxylic acid {3-[5-bromo-2-(3-fluoro-phenylamino)-pyrimidin-4-ylamino]-propyl}-amide, reference compound] | 2% | 15% | 6% | 36% | 44% | 77% | 42% | 90% | 12% | 13% | – | – | – | – | – | – | – | – | – | –
O=C(NCCCNc1nc(Nc2cccc(F)c2)ncc1C1CC1)C1CCC1 [Example 23, Cyclobutanecarboxylic acid {3-[5-cyclopropyl-2-(3-fluoro-phenylamino)-pyrimidin-4-ylamino]-propyl}-amide] | 25% | 52% | 50% | 67% | 107% | 111% | 89% | 99% | 11% | 50% | 52% | 25% | 67% | 50% | 111% | 107% | 99% | 89% | 50% | 11%
O=C(NCCCNc1nc(Nc2cccc(N3CCCC3=O)c2)ncc1C1CC1)c1cccs1 [Example 47, Thiophene-2-carboxylic acid (3-{5-cyclopropyl-2-[3-(2-oxo-pyrrolidin-1-yl)-phenylamino]-pyrimidin-4-ylamino}-propyl)-amide. Hydrochloride salt] | – | – | – | – | – | – | – | – | – | – | 33% | 17% | 81% | 63% | 80% | 78% | 80% | 78% | 71% | 28%
O=C(NCCCNc1nc(Nc2cccnc2)ncc1C1CC1)c1cccs1 [Example 50, Thiophene-2-carboxylic acid {3-[5-cyclopropyl-2-(pyridin-3-ylamino)-pyrimidin-4-ylamino]-propyl}-amide] | – | – | – | – | – | – | – | – | – | – | 44% | 24% | 76% | 38% | 72% | 80% | 84% | 73% | 52% | 16%
